Drawing on patent US20140309210A1, “INDAZOLE COMPOUNDS, COMPOSITIONS AND METHODS OF USE THEREOF” (Genentech, Inc., priority 2011, published 2014), this text covers Ki for 33 compounds.

Where only a bound is given, the exact number is not on record here.

For the test, the target named is T1, purified ITK (Invitrogen PV3875) (Homo sapiens, UniProt Q08881).
T1 construct: purchased Invitrogen PV3875
T1 sequence (Q08881 1-620): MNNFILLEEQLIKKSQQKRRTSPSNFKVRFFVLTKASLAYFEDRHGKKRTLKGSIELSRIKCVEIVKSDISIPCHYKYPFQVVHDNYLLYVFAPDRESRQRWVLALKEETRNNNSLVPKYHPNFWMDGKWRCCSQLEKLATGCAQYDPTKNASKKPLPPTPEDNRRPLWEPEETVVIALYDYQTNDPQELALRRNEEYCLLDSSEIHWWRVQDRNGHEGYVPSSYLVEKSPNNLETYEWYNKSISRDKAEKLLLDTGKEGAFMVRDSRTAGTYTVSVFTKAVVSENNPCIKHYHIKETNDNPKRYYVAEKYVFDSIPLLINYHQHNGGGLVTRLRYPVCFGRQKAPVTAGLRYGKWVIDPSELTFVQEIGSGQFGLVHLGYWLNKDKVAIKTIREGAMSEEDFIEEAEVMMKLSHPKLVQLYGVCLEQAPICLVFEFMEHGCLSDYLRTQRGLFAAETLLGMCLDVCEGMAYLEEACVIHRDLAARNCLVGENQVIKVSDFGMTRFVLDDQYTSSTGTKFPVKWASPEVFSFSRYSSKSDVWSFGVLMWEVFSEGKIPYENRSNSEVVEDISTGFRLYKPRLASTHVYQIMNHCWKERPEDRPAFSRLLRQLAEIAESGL
Description: ITK peptide phosphorylation assay (Caliper LabChip or LCMS). It counts as biochemical. In a few lines:
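Purified human ITK peptide phosphorylation, quenched with EDTA (50 mM final) for Caliper LabChip separation or TCA (5% v/v final) for UPLC-MS/MS MRM quantification. Ki derived via Morrison tight-binding equation, corrected for competitive inhibition using ATP concentration relative to Km,app.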

The mark [1] stands for this setting: Table 2, Examples 1-140, class symbols.

As a reminder, the Ki is the dissociation constant of the complex between target and ligand, obtained from inhibition or displacement. Low readings indicate a stronger hold on the target, high ones a looser hold on the target.

With `O=C(Nc1cnn(Cc2cccc(N3CCOCC3)c2)c1)c1n[nH]c2cc(-c3cn[nH]c3)ccc12` [Example 40, N-[1-[(3-morpholinophenyl)methyl]pyrazol-4-yl]-6-(1H-pyrazol-4-yl)-1H-indazole-3-carboxamide], the Ki under setting [1] was in the range of 0.01 to 1 nM.
Consider `O=C(O)c1ccc(Cn2cc(NC(=O)c3n[nH]c4cc(-c5cn[nH]c5)ccc34)cn2)o1` [Example 35, 5-(4-{[6-(1H-Pyrazol-4-yl)-1H-indazole-3-carbonyl]-amino}-pyrazol-1-ylmethyl)-furan-2-carboxylic acid], for which, under setting [1], the inhibition constant (Ki) was in the range of 1 to 100 nM.
Same read-out and setting: the same measure for `O=C(Nc1cnn(Cc2ccc(CN3CCC(O)C3)cc2)c1)c1n[nH]c2ccccc12` (stereo not shown) [Example 114, N-(1-(4-((3-hydroxypyrrolidin-1-yl)methyl)benzyl)-1H-pyrazol-4-yl)-1H-indazole-3-carboxamide]: 1 to 100 nM.
Turning to `CN(C)CCC(c1ccccc1)n1cc(NC(=O)c2n[nH]c3ccccc23)cn1` (stereo not shown) [Example 268, N-[1-[3-(dimethylamino)-1-phenyl-propyl]pyrazol-4-yl]-1H-indazole-3-carboxamide], the inhibition constant Ki (Table 1, Examples 141-279) is 5.98 nM.
Take `O=C(Nc1cnn(C2CCOc3ccccc32)c1)c1n[nH]c2cc(-c3cn[nH]c3)ccc12` (stereo not shown) [Example 185, N-(1-chroman-4-ylpyrazol-4-yl)-6-(1H-pyrazol-4-yl)-1H-indazole-3-carboxamide]: the affinity (Table 1, Examples 141-279), expressed as Ki, was 759 nM. Against the preceding compound, the Ki is about 130-fold higher.
On to `CN1CCC(Nc2ccc3[nH]nc(C(=O)Nc4cnn(Cc5cccc(C#N)c5)c4)c3c2)CC1` [Example 184, N-[1-[(3-cyanophenyl)meth-yl]pyrazol-4-yl]-5-[(1-methyl-4-piperidyl)amino]-1H-indazole-3-carboxamide], for which the Ki (Table 1, Examples 141-279) came to 1.33 nM. Against the preceding compound, the Ki is about 570-fold lower.
Take `COc1ccc(-c2ccc3c(C(=O)Nc4cnn(Cc5cccc(C#N)c5)c4)n[nH]c3c2)cn1` [Example 117, N-(1-(3-cyanobenzyl)-1H-pyrazol-4-yl)-6-(6-methoxypyridin-3-yl)-1H-indazole-3-carboxamide]: the Ki under setting [1] was 1 to 100 nM.
Compound `O=C(Nc1cnn(Cc2ccc(F)cc2F)c1)c1n[nH]c2ccccc12` [Example 71, N-(1-(2,4-difluorobenzyl)-1H-pyrazol-4-yl)-1H-indazole-3-carboxamide] displayed a Ki under setting [1] of 1 to 100 nM.
In the case of `CN(C)CC(c1ccccc1)n1cc(NC(=O)c2n[nH]c3ccccc23)cn1` (stereo not shown) [Example 276, N-[1-[2-(dimethylamino)-1-phenyl-ethyl]pyrazol-4-yl]-1H-indazole-3-carboxamide], where the note is “Table 1, Examples 141-279”, the affinity corresponds to a Ki of 152 nM.
`Cc1ccccc1Cn1cc(NC(=O)c2n[nH]c3ccccc23)cn1` [Example 56, N-(1-(2-methylbenzyl)-1H-pyrazol-4-yl)-1H-indazole-3-carboxamide]: the inhibition constant (Ki) under setting [1] fell in the range of 1 to 100 nM.
Still for that read-out and setting: the same measure for `O=C(Nc1cnn(Cc2csc(N3CCOCC3)n2)c1)c1n[nH]c2cc(-c3cn[nH]c3)ccc12` [Example 41, N-[1-[(2-morpholinothiazol-4-yl)methyl]pyrazol-4-yl]-6-(1H-pyrazol-4-yl)-1H-indazole-3-carboxamide]: 1 to 100 nM; for `CC(C)c1nc(Cn2cc(NC(=O)c3n[nH]c4cc(-c5cn[nH]c5)ccc34)cn2)cs1` [Example 21, 6-(1H-Pyrazol-4-yl)-1H-indazole-3-carboxylic acid [1-(2-isopropyl-thiazol-4-ylmethyl)-1H-pyrazol-4-yl]-amide]: 1 to 100 nM; for `CN1CCN(c2nc(Cn3cc(NC(=O)c4n[nH]c5cc(-c6cn[nH]c6)ccc45)cn3)cs2)CC1` [Example 42, N-[1-[[2-(4-methylpiperazin-1-yl)thiazol-4-yl]methyl]pyrazol-4-yl]-6-(1H-pyrazol-4-yl)-1H-indazole-3-carboxamide]: 1 to 100 nM.
`CN1CCN(c2ccc3c(C(=O)Nc4cnn(Cc5cccc(C#N)c5)c4)n[nH]c3c2)CC1` [Example 176, N-[1-[(3-cyanophenyl)meth-yl]pyrazol-4-yl]-6-(4-methylpiperazin-1-yl)-1H-indazole-3-carboxamide] came in with a Ki (Table 1, Examples 141-279) of 374 nM.
The compound `O=C(Nc1cnn(Cc2cccc(-c3ccccn3)c2)c1)c1n[nH]c2cc(-c3cn[nH]c3)ccc12` [Example 38, 6-(1H-Pyrazol-4-yl)-1H-indazole-3-carboxylic acid [1-(3-pyridin-2-yl-benzyl)-1H-pyrazol-4-yl]-amide] showed a Ki under setting [1] of 1 to 100 nM.
`CS(=O)(=O)CCC(c1ccccc1)n1cc(NC(=O)c2n[nH]c3ccccc23)cn1` (stereo not shown) [Example 277, N-[1-(3-methylsulfonyl-1-phenyl-propyl)pyrazol-4-yl]-1H-indazole-3-carboxamide] displayed a Ki (Table 1, Examples 141-279) of 114 nM.
Same read-out and setting: under `O=C(Nc1cnn(CCC2CCCCC2)c1)c1n[nH]c2cc(-c3cn[nH]c3)ccc12` [Example 169, N-[1-(2-cyclohexylethyl)py-razol-4-yl]-6-(1H-pyrazol-4-yl)-1H-indazole-3-carboxamide] stands 7.65 nM.
On to `Cc1ncccc1-c1ccc2c(C(=O)Nc3cnn(Cc4cccc(C#N)c4)c3)n[nH]c2c1` [Example 118, N-(1-(3-cyanobenzyl)-1H-pyrazol-4-yl)-6-(2-methylpyridin-3-yl)-1H-indazole-3-carboxamide], for which the inhibition constant (Ki) is over 100 nM under setting [1] and 110 nM (Table 3, specific values for certain examples).
Regarding `CCN(CC)CCn1cc(NC(=O)c2n[nH]c3cc(-c4cn[nH]c4)ccc23)cn1` [Example 171, N-[1-[2-(diethylamino)eth-yl]pyrazol-4-yl]-6-(1H-pyrazol-4-yl)-1H-indazole-3-carboxamide], the Ki (Table 1, Examples 141-279) came out at 7.99 nM.
As for `Nc1ccc(-c2ccc3c(C(=O)Nc4cnn(Cc5cscn5)c4)n[nH]c3c2)cn1` [Example 45, 6-(6-Amino-pyridin-3-yl)-1H-indazole-3-carboxylic acid (1-thiazol-4-ylmethyl-1H-pyrazol-4-yl)-amide], the Ki under setting [1] lay within 1 to 100 nM.
Regarding `O=C(Nc1cnn(CC2CN(Cc3ccccc3)CCO2)c1)c1n[nH]c2cc(-c3cn[nH]c3)ccc12` (stereo not shown) [Example 259, N-[1-[(4-benzylmorpholin-2-yl)methyl]pyrazol-4-yl]-6-(1H-pyrazol-4-yl)-1H-indazole-3-carboxamide], the Ki (Table 1, Examples 141-279) was found to be 2.76 nM.
Turning to `O=C(Nc1cnn(Cc2cccc(CNC3CC3)c2)c1)c1n[nH]c2ccccc12` [Example 98, N-(1-(3-((cyclopropylamino)methyl)benzyl)-1H-pyrazol-4-yl)-1H-indazole-3-carboxamide], the Ki under setting [1] is 1 to 100 nM.
In the case of `CNCCC(c1ccccc1)n1cc(NC(=O)c2n[nH]c3ccccc23)cn1` (stereo not shown) [Example 264, N-[1-[3-(methylamino)-1-phenyl-propyl]pyrazol-4-yl]-1H-indazole-3-carboxamide], the affinity (Table 1, Examples 141-279) corresponds to a Ki of 55.5 nM. This lies in the double-digit nanomolar range.
Same read-out and setting: the same measure for `CN(CCC(c1ccccc1)n1cc(NC(=O)c2n[nH]c3ccccc23)cn1)CC(F)F` (stereo not shown) [Example 274, N-[1-[3-[2,2-difluoroethyl(meth-yl)amino]-1-phenyl-propyl]pyrazol-4-yl]-1H-indazole-3-carboxamide]: 84.8 nM.
For `CC[C@@H](c1ccccc1)n1cc(NC(=O)c2n[nH]c3cc(-c4ccc(N)nc4)ccc23)cn1` [Example 136, (S)-6-(6-aminopyridin-3-yl)-N-(1-(1-phenylpropyl)-1H-pyrazol-4-yl)-1H-indazole-3-carboxamide], the Ki under setting [1] was in the range of 1 to 100 nM.
For the compound `CN(CCC(c1ccccc1)n1cc(NC(=O)c2n[nH]c3ccccc23)cn1)S(C)(=O)=O` (stereo not shown) [Example 271], the inhibition constant (Ki) (Table 1, Examples 141-279) stood at 6.92 nM.
The same measure, in the same setting: the same measure for `COc1cncc(-c2ccc3c(C(=O)Nc4cnn(Cc5ccncc5)c4)n[nH]c3c2)c1` [Example 219, 6-(5-methoxy-3-pyridyl)-N-[1-(4-pyridylmethyl)py-razol-4-yl]-1H-indazole-3-carboxamide]: 23 nM.
As to `CCNCc1cccc(Cn2cc(NC(=O)c3n[nH]c4ccccc34)cn2)c1` [Example 99, N-(1-(3-((ethylamino)methyl)benzyl)-1H-pyrazol-4-yl)-1H-indazole-3-carboxamide], the Ki under setting [1] lay in the range of 1 to 100 nM.
Turning to `CNc1cncc(-c2ccc3c(C(=O)Nc4cnn(Cc5ccccc5)c4)n[nH]c3c2)n1` [Example 189, N-(1-benzylpyrazol-4-yl)-6-[6-(methylamino)py-razin-2-yl]-1H-indazole-3-carboxamide], under “Table 1, Examples 141-279”, affinity was put at a Ki of 24.8 nM.
Compound `O=C(Nc1cnn(Cc2cccc(F)c2)c1)c1n[nH]c2ccccc12` [Example 63, N-(1-(3-fluorobenz)-1H-pyrazol-4-yl)-1H-indazole-3-carboxamide] registered an inhibitory constant (Ki) under setting [1] of 1 to 100 nM.
Still for that read-out and setting: under `O=C(Nc1cnn(Cc2cccc(CNCC3CC3)c2)c1)c1n[nH]c2ccccc12` [Example 95, N-(1-(3-((cyclopropylmethylamino)methyl)benzyl)-1H-pyrazol-4-yl)-1H-indazole-3-carboxamide] stands 1 to 100 nM.
Turning to `CNCCC(c1ccccc1)n1cc(NC(=O)c2n[nH]c3ccccc23)cn1` (stereo not shown) [Example 263, N-[1-[3-(methylamino)-1-phenyl-propyl]pyrazol-4-yl]-1H-indazole-3-carboxamide], for the setting “Table 1, Examples 141-279”, the Ki was 5.14 nM.
Take `COc1cncc(-c2ccc3c(C(=O)Nc4cnn(Cc5cccnc5)c4)n[nH]c3c2)c1` [Example 215, 6-(5-methoxy-3-pyridyl)-N-[1-(3-pyridylmethyl)py-razol-4-yl]-1H-indazole-3-carboxamide]: affinity (Table 1, Examples 141-279) was put at a Ki of 17.2 nM.
